# Assay results from patent US20240246905A1 (University of Leicester, priority 2021, published 2024).
# Assays:
# red blood cells = test: Hemolysis assay (CO-ADD); type: cell-based; details: 32 μg/mL highest concentration tested
# From the text: A problem often encountered by emerging drugs is hemolysis, also known as drug-induced immune hemolytic anemia.
# MRSA 252 [1] = test: Disc diffusion (Kirby-Bauer), zone of inhibition; type: cell-based, Staphylococcus aureus; details: Staphylococcus aureus, 500 μg/mL, '/' = no zone, read-out: Zone of inhibition
# Experimental: (§1) E. coli DH5α, P. aeruginosa PA01 and the 53 S. aureus strains were recovered from frozen (−80° C.) glycerol (15% v/v) stocks on Lysogeny agar (LA)—Gram negative and trypticase soy agar (TSA)—plates at 37° C. for 24 hours. Single colonies were placed in either 3 mL Lysogeny broth (LB)—Gram negative or trypticase soy broth (TSB)—Gram positive and incubated at 37° C., 250 rpm for 18 hours.
# (§2) The antibiotic activity was determined using a Kirby-Bauer method according to Clinical Standard Laboratory Institute (CSLI) Guidelines (2017). Briefly, 180 μL of a 1 in 200 dilution (in LB or TSB) of overnight cultures of selected Gram negative and Gram positive bacteria were applied to an agar plate containing the solid growth medium, Mueller-Hinton agar (MHA). Sterile discs, inoculated with 50 μL of antibiotic, were first added to the agar plate before the plates were incubated for 24 hours at 37° C. Following incubation, the zone of inhibition (if it existed) was recorded.
# MSSA 476 [2] = test: Disc diffusion (Kirby-Bauer), zone of inhibition; type: cell-based, Staphylococcus aureus; details: Staphylococcus aureus, 500 μg/mL, '/' = no zone, read-out: Zone of inhibition
# Experimental: as §1, §2
# HEK293 cells = test: Cytotoxicity assay, resazurin (CO-ADD)
# Experimental: The cytotoxicity studies were performed by CO-ADD (The Community for Open Antimicrobial Drug Discovery), funded by the Wellcome trust (UK) and the University of Queensland, Australia.^(28) In this study, the compounds were screened against a human embryonic kidney cell line, HEK293, at a set concentration of 32 μg/mL.
# DMEM supplemented with 10% FBS was used as growth media and the cells were incubated together with the compounds for 20 hours at 37° C. in 5% CO2.
# Cytotoxicity (or cell viability) was measured by fluorescence, excitation: 560/10 nm, emission: 590/10 nm (F560/590), after addition of 5 μL of 25 μg/mL Resazurin (2.3 μg/mL final concentration) and after incubation for further 3 h at 37° C. in 5% CO2. The fluorescence intensity was measured using a Tecan M1000 Pro monochromator plate reader, using automatic gain calculation CC50 (concentration at 50% cytotoxicity) were calculated by curve fitting the inhibition values vs. log(concentration) using sigmoidal dose-response function, with variable fitting values for bottom, top and slope. The curve fitting was implemented using Pipeline Pilot's dose-response component.
# [3] = tested on: various Staphylococcus aureus strains; test: Disc diffusion, Staphylococcus aureus strain study; type: cell-based; details: Staphylococcus aureus, 500 μg/mL
# From the text: At this point in the study it was decided to perform a disc diffusion assay study on 50 S. aureus strains. […] Moreover, by employing a range of mutant strains of S. aureus with specific gene-deletions, it was believed that if particular strains were resistant to the lead compounds, it could provide insights on the likely protein target of the lead antibiotics. However, all six of the compounds utilized in this study were able to inhibit growth of all 50 strains of S. aureus assayed at the chosen concentration of 500 μg/mL concentration (Table 5).
# as §1, §2
# MRSA 252 [4] = test: MIC, broth micro-dilution; type: cell-based, Staphylococcus aureus; details: Staphylococcus aureus, read-out: MIC
# Experimental: as §1
# (§3) Antibiotic MIC's were determined by a broth micro-dilution method according to Clinical Standard Laboratory Institute (CSLI) Guidelines (2017). Briefly, 96-well microplates, each containing 195 μL of the 1:2 dilution antibiotic in TSB, were inoculated with 5 μL of overnight cultured bacteria, diluted to give a starting bacterial concentration of 5×10^5 CFU/mL. The optical density of each well inoculated was recorded every 12 minutes over an 18 hour period at 37° C. The data from this was plotted in OriginPro8 (OriginLab) and sigmoidal curves fitted using the dose response function. Fitted values for each curve were used to calculate the MIC.
# MSSA 476 [5] = test: MIC, broth micro-dilution; type: cell-based, Staphylococcus aureus; details: Staphylococcus aureus, MSSA, read-out: MIC
# Experimental: as §1, §3
# [6] = tested on: Staphylococcus aureus 15981; test: Disc diffusion (Kirby-Bauer), zone of inhibition; type: cell-based; details: Staphylococcus aureus 15981; 500 μg/mL; '/' = no zone; read-out: Zone of inhibition
# Experimental: as §1, §2
smiles,measurement,setting,value
"[C-]#[N+]/C=C/c1ccc(O)cc1/C=C/c1ccccc1 [Compound 36, 4-((E Z)-2-Isocyanovinyl)-3-((E)-styryl)phenol]",Hemolytic activity (HC10),red blood cells,>32 µg/mL
same,zone of inhibition at 500 µg/mL,MRSA 252 [1],28 mm
same,zone of inhibition at 500 µg/mL,MSSA 476 [2],30 mm
same,Concentration toxic to HEK 293 cells,HEK293 cells; HEK 293,>32000 ng/mL
same,toxicity towards the HEK293 cell line (in words),HEK293 cells; set concentration of 32 μg/mL,no toxicity
same,zone of inhibition at 500 µg/mL,[3]; strain ASARM 61,29 mm
same,zone of inhibition at 500 µg/mL,[3]; strain ASARM 70,28 mm
same,zone of inhibition at 500 µg/mL,[3]; strain ASARM 71,26 mm
same,zone of inhibition at 500 µg/mL,[3]; strain ASARM 72,26 mm
same,zone of inhibition at 500 µg/mL,[3]; strain ASARM 73,29 mm
same,zone of inhibition at 500 µg/mL,[3]; strain ASARM 75,32 mm
same,zone of inhibition at 500 µg/mL,[3]; strain ASARM 76,34 mm
same,zone of inhibition at 500 µg/mL,[3]; strain ASARM 77,34 mm
same,zone of inhibition at 500 µg/mL,[3]; strain ASARM 79,29 mm
same,zone of inhibition at 500 µg/mL,[3]; strain ASARM 80,30 mm
same,zone of inhibition at 500 µg/mL,[3]; strain EOE 3,30 mm
same,zone of inhibition at 500 µg/mL,[3]; strain EOE 23,32 mm
same,zone of inhibition at 500 µg/mL,[3]; strain EOE 30,34 mm
same,zone of inhibition at 500 µg/mL,[3]; strain EOE 35,32 mm
same,zone of inhibition at 500 µg/mL,[3]; strain EOE 41,28 mm
same,zone of inhibition at 500 µg/mL,[3]; strain EOE 42,26 mm
same,zone of inhibition at 500 µg/mL,[3]; strain EOE 45,28 mm
same,zone of inhibition at 500 µg/mL,[3]; strain EOE 52,28 mm
same,zone of inhibition at 500 µg/mL,[3]; strain EOE 54,29 mm
same,zone of inhibition at 500 µg/mL,[3]; strain EOE 57,28 mm
same,zone of inhibition at 500 µg/mL,[3]; strain S139_7_7,24 mm
same,zone of inhibition at 500 µg/mL,[3]; strain S197_1_1,29 mm
same,zone of inhibition at 500 µg/mL,[3]; strain S197_1_8,28 mm
same,zone of inhibition at 500 µg/mL,[3]; strain S197_1_9,28 mm
same,zone of inhibition at 500 µg/mL,[3]; strain S197_1_10,28 mm
same,zone of inhibition at 500 µg/mL,[3]; strain S295_1_1,30 mm
same,zone of inhibition at 500 µg/mL,[3]; strain S295_1_2,30 mm
same,zone of inhibition at 500 µg/mL,[3]; strain S295_1_3,32 mm
same,zone of inhibition at 500 µg/mL,[3]; strain S364_5_11,30 mm
same,zone of inhibition at 500 µg/mL,[3]; strain S364_5_12,28 mm
same,zone of inhibition at 500 µg/mL,[3]; strain Sa_TPS 3026,29 mm
same,zone of inhibition at 500 µg/mL,[3]; strain Sa_TPS 3072,28 mm
same,zone of inhibition at 500 µg/mL,[3]; strain Sa_TPS 3092,29 mm
same,zone of inhibition at 500 µg/mL,[3]; strain Sa_TPS 3097,34 mm
same,zone of inhibition at 500 µg/mL,[3]; strain Sa_TPS 3103,32 mm
same,zone of inhibition at 500 µg/mL,[3]; strain Sa_TPS 3104,32 mm
same,zone of inhibition at 500 µg/mL,[3]; strain Sa_TPS 3106,28 mm
same,zone of inhibition at 500 µg/mL,[3]; strain Sa_TPS 3118,28 mm
same,zone of inhibition at 500 µg/mL,[3]; strain Sa_TPS 3133,28 mm
same,zone of inhibition at 500 µg/mL,[3]; strain Sa_TPS 3134,26 mm
same,zone of inhibition at 500 µg/mL,[3]; strain USFL 008,26 mm
same,zone of inhibition at 500 µg/mL,[3]; strain USFL 009,28 mm
same,zone of inhibition at 500 µg/mL,[3]; strain USFL 012,28 mm
same,zone of inhibition at 500 µg/mL,[3]; strain USFL 016,32 mm
same,zone of inhibition at 500 µg/mL,[3]; strain USFL 018,30 mm
same,zone of inhibition at 500 µg/mL,[3]; strain USFL 020,30 mm
same,zone of inhibition at 500 µg/mL,[3]; strain USFL 021,29 mm
same,zone of inhibition at 500 µg/mL,[3]; strain USFL 028,28 mm
same,zone of inhibition at 500 µg/mL,[3]; strain USFL 035,28 mm
same,zone of inhibition at 500 µg/mL,[3]; strain USFL 054,28 mm
same,zone of inhibition at 500 µg/mL,[3]; strain not given,22 mm
same,MIC,MRSA 252 [4],15 µg/mL
same,MIC,MSSA 476 [5],12 µg/mL
same,zone of inhibition at 500 µg/mL,[6],30 mm
